Experiments:
[1] = NaOCl obtained during the electrolysis compared with HCl; cited from earlier work
[2] = system: Pseudodiaptomus spp.(Copepoda); assay: Influence density of NaOCl in electrolyzed water on marine ecosystem; assay type: in vivo; conditions: Zooplankton
Protocol: (§1) In the meantime, according to the present invention, marine microorganisms are effectively killed. Influence density for most of organisms in the seawater by electrolyzed water is shown on Table 1 below. As a result of performing the present invention, it has been checked by a natural eye that organisms causing red tide is completely eliminated within 1-2 minutes after spreading of the electrolyzed water. A density of Cochlodinium which has been a population of 7-8 thousand/ml in an actual relevant sea area has approached almost zero after four hours elapse, showing high relief efficiency. If the NaOCl component density required by the electrolyzed water is controlled, complete elimination of marine microorganisms is achieved.

Acartia spp.(Copepoda) = assay: as above; assay type: in vivo
Protocol: as §1

Strombidinopsis sp = assay: as above; assay type: in vivo; conditions: Protista
Protocol: as §1

[3] = system: Adult seaweeds: Borphyra seriata, Ulva pertusa; assay: as above; assay type: in vivo
Protocol: as §1

[4] = system: Adult benthic fauna: Tapes philippinarum, Giant pacific oyster, Pachygrapsus crassipes; assay: as above; assay type: in vivo
Protocol: as §1

[5] = system: Fish: Bastard halibut fry, sebastes schlegeli fry; assay: as above; assay type: in vivo
Protocol: as §1

[6] = system: Seaweeds spore: Borphyra seriata, Ulva pertusa, Brown seaweed; assay: as above; assay type: in vivo
Protocol: as §1

[7] = system: Artemia larva(Kugenumaenis); assay: as above; assay type: in vivo; conditions: Benthic fauna larva
Protocol: as §1

Polykrikos kofodidii = assay: as above; assay type: in vivo; conditions: Protista
Protocol: as §1

Barnacle larva = assay: as above; assay type: in vivo; conditions: Benthic fauna larva
Protocol: as §1

Oxyrrhis marina = assay: as above; assay type: in vivo; conditions: Protista
Protocol: as §1

Compound: [Na+].[O-]Cl [NaOCl]
- Insecticide and sterilizing effects relative to HCl [1]: about 1.4 times
- Influence density [2]: 10-20 ppm
- Influence density (Acartia spp.(Copepoda)): 2.0 ppm
- Influence density (Strombidinopsis sp): 0.75-1.0 ppm
- Influence density [3]: 1.0-1.5 ppm
- Influence density [4]: 20 or more ppm
- Influence density [5]: 2-5 ppm
- Influence density [6]: 0.1-0.3 ppm
- Influence density [7]: 30-50 ppm
- Influence density (Polykrikos kofodidii): 0.75-1.0 ppm
- Influence density (Barnacle larva): 50 ppm
- Influence density (Oxyrrhis marina): 0.3 ppm

Source: patent US20070158208A1, “Apparatus and methods for treating ballast water by using electrolysis of natural seawater” (Research Institute of Industrial Science & Technology, priority 2003, published 2007)
